Here are results for 1 compound from patent US6689803B2, “Compositions and methods for treating surgical adhesions” (Angiotech Pharmaceuticals, Inc., priority 1996, dated 2004).

Assay [1] deals with AP-1 DNA binding activity. The assay can be described thus: IL-1 induced AP-1 DNA binding (gel mobility shift). As to conditions: 10^−7 to 10^−5 M, pretreated 24 hours. The class given is cell-based.
Experimental: Binding activity was assayed with a radiolabeled human AP-1 sequence probe and gel mobility shift assay. […] The “com” lane contains excess unlabeled AP-1 oligonucleotide. The results shown are representative of tree independent experiments.
In a further assay the test system is adhesion formation. Nature of the assay: Rabbit uterine horn model of surgical adhesions. The class given is in vivo. On the procedure: New Zealand female white rabbits were anesthetized and a midline incision made through the skin and the abdominal wall. Both uterine horns were located and exteriorized. Using a French Catheter Scale, the diameter of each uterine horn was measured and recorded. Only those rabbits with uterine horns measuring size 8 to 16, inclusive, on the French scale were used. Using a number 10 scalpel blade, 5 cm lengths of each uterine horn, approximately 1 cm from the uterine bifurcation, were scraped, 40 times per side, until punctuate bleeding. Hemostasis was achieved by tamponade.
Test agent (0.4 to 2.5 ml) was applied over the horns via an 18 gauge needle. Uterine horns were replaced into the pelvis and the abdominal incision closed.
Body weights of the animals were recorded. The abdomen was opened and the surgical site inspected. Adhesions were graded by a blinded observer as follows:
The total length (cm) of each uterine horn involved with adhesions was estimated and recorded.
Adhesions were grades as 0 (absent), 1.0 (filmy adhesions) and 2.0 (tenacious, requiring sharp dissection).
The degree of uterine convolution was recorded according to the following scale:
No convolution: Straight lengths of adherent or non-adherent horns which are clearly discerned.
Completely convoluted: It is impossible to discern uterine anatomy because the horn is completely entangled.

Each structure is given as a SMILES string. Marks after values point to notes of the source that are not given here.

As to `CC(=O)O[C@H]1C(=O)[C@@]2(C)[C@H]([C@H](OC(=O)c3ccccc3)[C@]3(O)C[C@H](OC(=O)[C@H](O)[C@@H](NC(=O)c4ccccc4)c4ccccc4)C(C)=C1C3(C)C)[C@]1(OC(C)=O)CO[C@@H]1C[C@@H]2O` [paclitaxel], the “IL-1 induced AP-1 binding activity” value in assay [1] is on record as “decreased”. In addition, the “Adhesion-Free: number of uterine horns free of adhesions/total” value is 0/20 in the assay on adhesion formation (0.1% in vehicle) and 0/18 in the assay with adhesion formation (1% in vehicle). In addition, the “Convolution: number of uterine horns with no convolution/partial convolution/full convolution” value in the assay on adhesion formation (0.1% in vehicle) was 16/2/2†; in the assay with adhesion formation (1% in vehicle) it was 18/0/0‡. The “Extent: length of uterine horn with adhesions (± Standard Error of the Mean)” value with adhesion formation (0.1% in vehicle) is 2.925 (0.338)* cm; in the assay on adhesion formation (0.1% in vehicle, listed as Paclitaxel), 2.925±0.338 cm; with adhesion formation (1% in vehicle) it was 2.028±0.374 cm; in the assay on adhesion formation (1% in vehicle, listed as paclltaxel), 2.028 (0.374)** cm.
